SMILES strings stand for the structures. The source made the active and inactive calls. For most assays here, no stated cut-off is given here; in the data, active = IC50 of 10 µM or less and inactive = more. Some results are limits rather than exact numbers.

Broadly, the IC50 is the concentration that gives 50% inhibition.

Assay [1] concerns the target Mu-type opioid receptor (Homo sapiens, UniProt P35372). The assay can be described thus: SAR Analysis of Antagonists of the MOR Receptor using an Image-Based Assay - Set 3. [Related pubchem assays (depositor defined):AID1777, AID1785, AID1786, AID1966, AID2133, AID2136, AID2284, AID2285, AID2420]. Format: functional.
Assay [2] has as its target T1, Kappa-type opioid receptor (Homo sapiens, UniProt P41145). Kind of assay: SAR analysis of small molecule antagonists of the kappa opioid receptor via a luminescent beta-arrestin assay - Set 3. [Related pubchem assays (depositor defined):AID1777, AID1778, AID1785, AID1786, AID1966, AID2133, AID2136, AID2285, AID2495]. Format: functional.
Assay [3] has as its target Delta-type opioid receptor (Homo sapiens, UniProt P41143). The assay can be described thus: SAR Analysis of Antagonists of the DOR Receptor using an Image-Based Assay - Set 3. [Related pubchem assays (depositor defined):AID1777, AID1785]. The class given is functional.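 Further: U2OS cells expressing DOR1 and beta-arrestin GFP stimulated with 100 nM SNC80; imaging of GFP-tagged beta-arrestin moving into spots after receptor activation.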
The target in assay [4] is T1, Kappa-type opioid receptor. Kind of assay: SAR analysis of Antagonists of the Kappa Opioid Receptor (KOR) using an Image-Based Assay - Set 4. [Related pubchem assays (depositor defined):AID1777, AID1785]. Format: functional.
Assay [5] has as its target T2, Neuropeptides B/W receptor type 1 (Homo sapiens, UniProt P48145).
T2 sequence (P48145 whole entry): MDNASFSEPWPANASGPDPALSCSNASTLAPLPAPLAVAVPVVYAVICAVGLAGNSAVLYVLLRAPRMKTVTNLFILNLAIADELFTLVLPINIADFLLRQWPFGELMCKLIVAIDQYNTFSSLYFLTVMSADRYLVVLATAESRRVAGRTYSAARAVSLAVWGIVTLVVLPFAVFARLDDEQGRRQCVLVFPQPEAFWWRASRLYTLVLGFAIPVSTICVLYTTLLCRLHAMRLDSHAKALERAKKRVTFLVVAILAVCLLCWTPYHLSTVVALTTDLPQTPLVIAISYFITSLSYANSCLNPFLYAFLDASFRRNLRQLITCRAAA
The assay can be described thus: human NPBW1 receptor blockade, IC50 – cell-based, fluorescence, dose response, late-stage follow-up (AID 463251). Format: functional.

In assay [6] the target is Melanin-concentrating hormone receptor 1 (Homo sapiens, UniProt Q99705). The assay can be described thus: Late-stage fluorescence-based counterscreen for antagonists of the G-protein coupled receptor 7 (GPR7): cell-based dose response assay to identify antagonists of the melanin-concentrating hormone receptor 1 (MCHR1). [Related pubchem assays (depositor defined):AID1861, AID1880, AID1952, AID2148, AID2251, AID2257, AID485339]. The class given is functional. In general terms: Counterscreens check selectivity or assay interference.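 Further: stimulated with 30 nM MCH peptide agonist.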
Melanin-concentrating hormone receptor 1, sequence (Q99705 whole entry): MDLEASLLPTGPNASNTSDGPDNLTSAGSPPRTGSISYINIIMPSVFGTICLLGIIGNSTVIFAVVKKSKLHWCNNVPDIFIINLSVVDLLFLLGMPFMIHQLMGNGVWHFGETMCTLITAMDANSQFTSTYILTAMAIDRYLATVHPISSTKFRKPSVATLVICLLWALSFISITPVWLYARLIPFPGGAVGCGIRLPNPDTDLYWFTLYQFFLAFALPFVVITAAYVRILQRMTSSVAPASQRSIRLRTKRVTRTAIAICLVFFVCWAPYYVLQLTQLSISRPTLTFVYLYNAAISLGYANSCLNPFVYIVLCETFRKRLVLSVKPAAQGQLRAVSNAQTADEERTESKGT

Assay [7] has as its system J774.A1. Kind of assay: Confirmation of image-based Screening Assay for Inhibitors of Phagocytosis. [Related pubchem assays (depositor defined):AID1029, AID1643]. Format: functional, cell-based. The settings on record: Mus musculus.

T1 sequence (P41145 whole entry): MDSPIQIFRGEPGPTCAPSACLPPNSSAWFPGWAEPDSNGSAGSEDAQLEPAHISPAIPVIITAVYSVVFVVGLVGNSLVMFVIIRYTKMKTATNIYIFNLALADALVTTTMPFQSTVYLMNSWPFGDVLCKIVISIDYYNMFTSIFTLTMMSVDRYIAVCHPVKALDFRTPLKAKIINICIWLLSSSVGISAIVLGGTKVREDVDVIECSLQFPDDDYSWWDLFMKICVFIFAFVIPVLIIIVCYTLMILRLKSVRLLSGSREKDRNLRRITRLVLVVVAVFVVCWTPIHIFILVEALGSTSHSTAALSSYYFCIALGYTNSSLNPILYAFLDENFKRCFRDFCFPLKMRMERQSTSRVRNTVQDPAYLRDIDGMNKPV
Delta-type opioid receptor, sequence (P41143 whole entry): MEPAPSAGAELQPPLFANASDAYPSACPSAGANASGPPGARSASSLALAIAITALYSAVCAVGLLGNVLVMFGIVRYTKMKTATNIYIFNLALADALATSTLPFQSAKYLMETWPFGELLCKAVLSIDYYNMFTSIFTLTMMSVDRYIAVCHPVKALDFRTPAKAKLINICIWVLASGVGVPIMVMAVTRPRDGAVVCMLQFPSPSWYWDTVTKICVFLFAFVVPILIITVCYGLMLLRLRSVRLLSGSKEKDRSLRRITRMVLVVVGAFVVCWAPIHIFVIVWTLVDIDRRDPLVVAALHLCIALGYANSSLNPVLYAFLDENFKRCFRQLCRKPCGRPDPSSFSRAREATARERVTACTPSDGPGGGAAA
Mu-type opioid receptor, sequence (P35372 whole entry): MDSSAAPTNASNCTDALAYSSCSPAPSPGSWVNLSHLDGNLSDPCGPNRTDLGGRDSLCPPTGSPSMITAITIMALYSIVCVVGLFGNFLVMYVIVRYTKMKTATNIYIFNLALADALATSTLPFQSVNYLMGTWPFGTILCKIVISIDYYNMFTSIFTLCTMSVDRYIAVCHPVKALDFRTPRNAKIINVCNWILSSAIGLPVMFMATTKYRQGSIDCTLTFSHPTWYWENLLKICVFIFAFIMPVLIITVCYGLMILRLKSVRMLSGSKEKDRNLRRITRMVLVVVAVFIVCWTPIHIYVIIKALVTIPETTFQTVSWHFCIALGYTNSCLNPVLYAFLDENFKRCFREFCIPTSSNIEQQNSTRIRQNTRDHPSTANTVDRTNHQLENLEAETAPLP

`COc1ccc(CN(CCNC(=O)c2ccc(CNS(=O)(=O)c3ccccc3)cc2)C(C)C)cc1`: the IC50 in assay [1] is 14.3 µM (inactive); in assay [2], 5.58 µM (active); in assay [3], > 32 µM (inactive); in assay [4] it was 1.79 µM (active).
With `CC(=O)Nc1ccc(Oc2c(Cl)cnn(-c3ccc(C(C)C)cc3)c2=O)cc1`, the IC50 in assay [5] was 2.1 µM (active); in assay [6], 6.3 µM (active).
For `Cc1c(C=NNC(=O)C2COc3ccccc3O2)c2ccccc2n1C` (configuration not stated), the IC50 in assay [7] was > 25 µM (inactive).

Source of the values: ChEMBL document CHEMBL1201862, “PubChem BioAssay data set” (2004).
